Results on 1 compound are retold here after patent US20130195770A1, “COMPOSITION AND METHOD FOR REDUCING ATHEROSCLEROTIC LESIONS” (DuPont Nutrition Bioscience ApS, priority 2010, published 2013).

Data set [1] deals with wild type male mice (C57BL/6J). Briefly: Intestinal absorption of cholesterol in mice, plasma dual isotope ratio method, with added cholesteryl oleate. To be noted: oral bolus [14C]-cholesterol + unlabeled cholesteryl oleate (molar ratio 1:1) in skimmed milk, plasma after three days; p<0.05; FIG. 2A. The data set is classed as in vivo. As for the experimental part:
The net intestinal absorption of cholesterol and cholesteryl esters was measured using the plasma dual isotope ratio method described in Wang et al (Journal of Lipid Research, [2003] 44, 1042-1059). This method is based on the simultaneous intragastric (IG) and intravenous (IV) administration of […], and measurement of plasma cholesterol isotope ratios at a set point in time. By definition, the […] corresponds to “100% absorption”, whereas the [^3H]-cholesterol found in the blood reflects the absorption by the gastrointestinal tract. The method allows correction for post-absorptive cholesterol metabolism and for colonic handling of the malabsorbed labelled cholesterol by […] Fifteen wild type male mice (C57BL/6J), age of 5 weeks were randomly assigned into 3 groups. An amount of 2.5 μCi of [^3H]-cholesterol was dissolved in 100 μl of phosphate buffered saline (PBS) and injected into the tail vein of non fasted and not-anesthetized animals. The animal were then given an oral bolus (IG) dose of either [^14C]-cholesterol, [^14C]-cholesterol+unlabeled cholesteryl oleate (molar ratio 1:1) or [^14C]-cholesteryl oleate dissolved in skimmed milk. […] The percent of cholesterol absorption in plasma was calculated using (1).

Data set [2] has as its system CaCo-2 cells. Briefly: Uptake of micellar cholesterol by CaCo-2 cells with or without unlabeled cholesteryl oleate. The data set is classed as cell-based, Human. To be noted: CaCo-2 monolayers, 45 min at 37° C., [1,2-3H] cholesterol micelles with or without unlabeled cholesteryl oleate; p<0.001; FIG. 1A. The source says:
(§1) Human colon adenocarcinoma (Caco-2) cells were kindly provided by J T Rasmussen (Department of Molecular Biology Aarhus University C. F. M0llers Alle 3DK-8000 Aarhus CDenmark). Cells were routinely maintained in NUNCLON flasks in Dulbecco's […] (DMEM) supplemented with 4.5g/1 glucose. 10% heat-inactivated fetal bovine serum (FBS), 1% nonessential amino acid (NEAA), and 1% antibiotics (complete medium), as previously described (Hidalgo I J. Raub T J. Borchardt R T, Gastroenterology, (1989) ar;96(3):736-49). Once the flasks reached 80% confiuency, the cells were dispersed and seeded into 24-well plates at density 10^5 cells/well in DMEM supplemented with 10% FBS and 1% NEAA. […]
(§2) Micelles were prepared according to the method described by Kirana (Kirana C. Rogers P F, Bennett L E, Abevwardena M Y, Patten G S, J Agric Food Chem. (2005) Jun. 1; 53(1 1):4623-7) with slight modifications. […] The particle size of micelles was determined by dynamic light scattering (DLS) with use of the Malvern Zetasizer Nano series machine using latex 60 nm Nanosphere Size Standard.
Monolayers were incubated at 37° C. for 45 min in micellar solutions containing [1,2-^3H] cholesterol with or without unlabeled cholesteryl oleate. […] The cells were analyzed as described above. […]

Data set [3] deals with wild type male mice (C57BL/6J). In words: Intestinal absorption of cholesteryl oleate in mice, plasma dual isotope ratio method. The data set is classed as in vivo. To be noted: oral bolus [14C]-cholesteryl oleate in skimmed milk, plasma after three days; p<0.001; FIG. 2B.
Protocol: The net intestinal absorption of cholesterol and cholesteryl esters was measured using the plasma dual isotope ratio method described in Wang et al (Journal of Lipid Research, [2003] 44, 1042-1059). This method is based on the simultaneous intragastric (IG) and intravenous (IV) administration of [^3H] -cholesterol and [^14C] -cholesterol, respectively, and measurement of plasma cholesterol isotope ratios at a set point in time. By definition, the IV [^14C]-cholesterol dose corresponds to “100% absorption”, whereas the [^3H]-cholesterol found in the blood reflects the absorption by the gastrointestinal tract. The method allows correction for post-absorptive cholesterol metabolism and for colonic handling of the malabsorbed labelled cholesterol by defining Fifteen wild type male mice (C57BL/6J), age of 5 weeks were randomly assigned into 3 groups. An amount of 2.5 μCi of [^3H]-cholesterol was dissolved in 100 μl of phosphate buffered saline (PBS) and injected into the tail vein of non fasted and not-anesthetized animals. The animal were then given an oral bolus (IG) dose of either [^14C]-cholesterol, [^14C]-cholesterol+unlabeled cholesteryl oleate (molar ratio 1:1) or [^14C]-cholesteryl oleate dissolved in skimmed milk. […] The percent of cholesterol absorption in plasma was calculated using (1).
The subject of a further data set is Transgenic mice. Briefly: Aorta surface covered by atherosclerotic lesions, en face ORO staining. The data set is classed as in vivo. To be noted: 28 weeks. The source says:
The surface of aorta covered with atherosclerotic lesions was quantified as described by Palinski et al. (1994) and Zampolli et al. (2006). Non-fasted animals were anesthetized with pentobarbital injected intraperitoneally. Next, maximum volume of blood was collected from the heart by direct cardiac puncture of the right ventricle. Blood was kept for further analyses as described above. The heart and arterial tree were then flushed with a heparin-containing cardioplegic solution via a cannula inserted into the left ventricle, followed by perfusion with formalin for 5 minutes. The arterial tree was exposed, branching arteries were removed and entire aorta was dissected from the aortic arch down to the iliac bifurcation. Using a stereomicroscope, aortas were cleaned from periadventitial tissue; remaining branches were cut off and opened longitudinally by incision following the inner curvature of the aortic arch and the ventral side of the aorta. Additional incisions followed the outer curvature of the arch to the subclavian artery. An Oil Red 0 (ORO) staining solution was prepared by diluting the ORO stock solution (5 mg/ml in 2-propanol; Sigma Aldrich) with deionized water (6:4). Dissected aortas were stained for 30 minutes with ORO, followed by rinsing with 2-propanol and deionized water. Stained aortas were then laid flat on the microscope slide with endothelial side facing upwards. The tissues were mounted with aqueous mounting agent (Aquatex®, Merck Chemicals, Darmstadt, Germany) and covered with glass slide cover slip.
Digital images of the slides were obtained through the 48-bit color scanner (Canoscan 9950F, Canon) with 1200 DPI resolution. The images were captured in Photoshop CS3 Extended software and converted to gray scale. After further processing, including sharpness, contrast and brightness adjustments, and the image of aorta was printed out in two copies. […] Images of a hand-drawn aorta outlines and regions (patches) matching atherosclerotic lesions were then scanned and re-imported into Adobe Photoshop and the images were then evaluated obtain the percent of aorta covered with atherosclerotic lesions. Briefly, in the digitized image of entire aorta and the image of the patches corresponding to lesions, red outlined areas were converted to black and the blackness values for all pixels in the image were summed and counted.
Transgenic mice were randomized into 5 dietary regiments: (1) Normal chow (NC), (2) NC+0.2% cholesterol oleate (CLE), (3) Western type diet (WD) containing 0.2% cholesterol, (4) WD containing 0.2% cholesterol and 0.2% CLE, (5) WD containing 0.1% cholesterol and 0.1% CLE. The extent of the lesions was quantified as percent area positive to lipid staining by ORO in the entire aorta after 28 weeks of experimental treatments.

Data set [4] concerns CaCo-2 cells. Briefly: Uptake of micellar cholesteryl oleate by CaCo-2 cells. The data set is classed as in vitro ADME, Human. The conditions noted are these: micelles containing [1,2-3H] cholesteryl oleate vs labeled cholesterol, FIG. 1B.
Text: as §1, §2
Differentiated Caco-2 cells were incubated at 37° C. for 1, 3 and 5 hours with micellar solutions containing ^3H-labelled cholesteryl oleate according to the method described above. […] For quantitative analysis ^14C-cholesterol was used as an external standard to correct for the extraction efficiency. […]

Molecules are shown by their SMILES.

On to `CCCCCCCC/C=C\CCCCCCCC(=O)O[C@H]1CC[C@@]2(C)C(=CC[C@H]3[C@@H]4CC[C@H]([C@H](C)CCCC(C)C)[C@@]4(C)CC[C@@H]32)C1` [cholesteryl oleate], for which the “reduction in cholesterol adsorption compared to [14C]-cholesterol treated mice” value in data set [1] stood at 12%. The “more cholesterol accumulated by cells incubated with cholesterol micelles alone compared to micelles containing both cholesterol and cholesteryl oleate” value in the data set with CaCo-2 cells [2] amounted to 30%. In data set [3], the “reduction in cholesterol uptake compared to mice treated with [14C]-cholesterol” value was found to be 50%. Besides, the “effect on atherosclerotic lesions in Western type diet” value in the data set on Transgenic mice (WD vs WD+0.2% CLE and WD+0.1% CLE, FIGS. 3 and 4) is listed as “lowered atherosclerotic lesions”. In addition, in the data set on Transgenic mice (mice fed WD+0.2% CLE), the “rate of atherosclerosis, WD+0.2% CLE compared with WD+0.1% CLE” value is reported as “higher rates of atherosclerosis than mice fed with WD+0.1% CLE”. Besides, the “total plaque area (percent area positive to ORO in the entire aorta)” value with Transgenic mice (normal chow (NC)+0.2% CLE) turned out to be 1.2±0.9%. Further, the “difference in plaque formation between NC and NC+0.2% CLE” value in the data set with Transgenic mice (normal chow) is “no difference between those two treatments”. In addition, in the data set on CaCo-2 cells [4], the “fold less labeled sterol in cells incubated with cholesteryl oleate micelles compared to cholesterol micelles” value is given as “approximately 2 fold”.
